We go through 17 compounds from ChEMBL document CHEMBL1130840, “Synthesis and anti-HIV activities of urea-PETT analogs belonging to a new class of potent non-nucleoside HIV-1 reverse transcriptase inhibitors” (Bioorg Med Chem Lett, 1998).

Some results are limits rather than exact numbers.

For assay [1], the target named is Human immunodeficiency virus type 1 reverse transcriptase (Human immunodeficiency virus 1, UniProt Q72547, L100I). Briefly: Inhibitory effect on recombinant HIV- 1 reverse transcriptase which has a mutation Leu 100 to Ile 100 (clone 118).
For assay [2], the system named is Human immunodeficiency virus 1. The assay is described as follows: Antiviral activity was determined against HIV-1 (clone 90) in MT-4 cells infected with HIV-1 IIIB using an XTT assay. It counts as functional. The conditions noted are these: Human immunodeficiency virus 1, MT4; read-out: ED50 (the source's name).
Assay [3] concerns Human immunodeficiency virus 1. Briefly: Antiviral activity was determined against HIV-1 (clone 118) in MT-4 cells infected with HIV-1 IIIB using an XTT assay. The settings on record: Human immunodeficiency virus 1, MT4; read-out: ED50 (the source's name). The class given is functional.
The test system of assay [4] is Human immunodeficiency virus 1. The assay is described as follows: (§1) Antiviral activity was determined against wild type HIV-1 in MT-4 cells infected with HIV-1 IIIB using an XTT assay. It counts as functional. The conditions noted are these: Human immunodeficiency virus 1, MT4; read-out: ED50 (the source's name).
Assay [5] concerns the target Human immunodeficiency virus type 1 reverse transcriptase (Human immunodeficiency virus 1, UniProt Q72547). The assay is described as follows: Inhibitory effect on wild type HIV- 1 reverse transcriptase using rCdG as template and dGTP as substrate.
In assay [6] the target is Human immunodeficiency virus type 1 reverse transcriptase (Human immunodeficiency virus 1, UniProt Q72547, Y181C). The assay is described as follows: Inhibitory effect on recombinant HIV- 1 reverse transcriptase which has a mutation Tyr 181 to Cys 181 (clone 90).
Assay [7] relates to Human immunodeficiency virus 1. The description is as §1. The class given is functional. The settings on record: Human immunodeficiency virus 1, MT4; read-out: ED50 (the source's name). This is another data set of the same source.
In assay [8] the test system is MT4. The assay is described as follows: Antiviral activity was determined against wild type HIV- I in MT-4 cells infected with HIV-1 IIIB using an XTT assay which contains 15% human AB serum. It counts as functional. The conditions noted are these: read-out: ED50 (the source's name).
The test system of assay [9] is MT4. Briefly: Compound was tested for its inhibitory effect on HIV-1 in MT-4 cells. It counts as functional. The settings on record: Homo sapiens, read-out: ED50 (the source's name).

Take `CCOc1ccc(F)c(CCNC(=O)Nc2ccc(Br)cn2)c1Cl`: the IC50 in assay [1] stood at 1700 nM; in [5] it was 4 nM; in assay [6] it was 240 nM. For the same compound, the EC50 amounted to 8 µM in [2], 15000 nM in assay [3] and 70 nM in assay [4].
Regarding `Cc1ccnc2c1NC(=O)c1cccnc1N2C1CC1` [NEVIRAPINE], the EC50 in [2] worked out at 22 µM; in assay [3], 620 nM; in assay [4] it was 150 nM.
On to `CCOc1ccc(F)c([C@H]2C[C@H]2NC(=O)Nc2ccc(C#N)cn2)c1Cl`, for which the IC50 in assay [1] was determined as 80 nM; in [5], 4 nM; in assay [6] it was 70 nM. Moreover, the EC50 in assay [2] was 0.53 µM; in [3], 270 nM; in assay [4], 10 nM; in assay [7], 20 nM.
`O=C(Nc1ccc(Cl)cn1)N[C@@H]1C[C@@H]1c1c(F)cccc1F`: the values for the EC50 (with MT4 [8]; in [4]) were 10 nM and 6 nM, respectively. Also, the values for the half-maximal inhibitory concentration (IC50) in assay [1], in assay [5] and in assay [6] were 30 nM, 2 nM and 120 nM, respectively.
For `CCc1cc(NCc2nc3c(Cl)ccc(Cl)c3o2)c(O)nc1C` [L-697661], the IC50 was 1600 nM in [1] and 15000 nM in assay [6]. For the same compound, the EC50 in [2] is greater than 11 µM; in [3] it was 850 nM; in assay [4], 65 nM.
Take `S=C(NCCc1ccccc1)Nc1nccs1`: in the assay on MT4 [9], the EC50 was determined as 1300 nM.
As for `CCOc1ccc(OC)c(CCNC(=O)Nc2ccc(Cl)cn2)c1F`, the IC50 was found to be 2500 nM in assay [1], 8 nM in [5] and 500 nM in assay [6]. For the same compound, the values for the EC50 in assay [2], in [3] and in assay [4] were greater than 27 µM, 14000 nM and 130 nM, respectively.
On to `CCOc1ccc(OC)c([C@H]2C[C@H]2NC(=O)Nc2ccc(Br)cn2)c1F`, for which the figures for the IC50 in assay [1], in assay [5] and in assay [6] were 240 nM, 7 nM and 90 nM, respectively. Moreover, the EC50 in [4] stood at 25 nM; in assay [7], 400 nM.
`COc1ccc(OC)c([C@H]2C[C@H]2NC(=O)Nc2ccc(Cl)cn2)c1F`: the IC50 is 270 nM in assay [1], 2 nM in assay [5] and 270 nM in assay [6]. Besides, the EC50 stood at 2.7 µM in assay [2], 1600 nM in assay [3], 12 nM in assay [4] and 100 nM in assay [7].
As for `COc1ccc(OC)c(CCNC(=O)Nc2ccc(Cl)cn2)c1F`, the IC50 was 140 nM in [1], 3 nM in [5] and 140 nM in [6]. Also, the EC50 in assay [2] was determined as 3 µM; in assay [3], 17000 nM; in [4], 11 nM; in [7], 90 nM.
For the compound `CCOc1ccc(F)c([C@H]2C[C@H]2NC(=O)Nc2ccc(Cl)cn2)c1Cl`, the figures for the IC50 in [1], in assay [5] and in assay [6] were 80 nM, 8 nM and 50 nM, respectively. For the same compound, the EC50 in assay [3] is 100 nM; in assay [4], 16 nM; in assay [7], 60 nM.
With `CCOc1ccc(Cl)c([C@H]2C[C@H]2NC(=O)Nc2ccc(Cl)cn2)c1F`, the IC50 in [1] is 50 nM; in assay [5], 1.5 nM; in assay [6] it was 20 nM. Also, the EC50 in assay [2] amounted to 0.1 µM; in assay [3] it was 100 nM; in assay [4], 8 nM; in assay [7], 100 nM.
`CN(C)c1ccc(F)c(CCNC(=O)Nc2ccc(Br)cn2)c1F`: the IC50 in assay [1] was greater than 2500 nM; in [5], 25 nM; in assay [6], 1500 nM. The figures for the EC50 in [2], in [3] and in [4] were greater than 25 µM, greater than 25000 nM and 500 nM, respectively.
Regarding `CCOc1ccc(F)c([C@H]2C[C@H]2NC(=O)Nc2ccc(Cl)cn2)c1F`, the IC50 in [1] was 80 nM; in assay [5] it was 1.5 nM; in assay [6], 15 nM. Moreover, the EC50 in [2] is 0.27 µM; in [3], 750 nM; in [4] it was 8 nM; in assay [7], 30 nM.
On to `COc1ccc(C(C)=O)c(F)c1CCNC(=O)Nc1ccc(Cl)cn1`, for which the IC50 in [1] turned out to be 1100 nM; in [5], 100 nM; in [6], 10000 nM. The EC50 in [2] was greater than 27 µM; in assay [3], greater than 27000 nM; in [4] it was 200 nM.
Regarding `S=C(NCCc1ccccn1)Nc1ccc(Br)cn1` [TROVIRDINE], the IC50 is 700 nM in assay [1] and 3200 nM in assay [6]. For the same compound, the EC50 was greater than 5 µM in assay [2], 800 nM in assay [3], 20 nM in assay [4] and 5000 nM in assay [7].
As for `O=C(NCCc1c(F)cccc1F)Nc1ccc(Cl)cn1`, the EC50 in assay [2] is greater than 32 µM; in [3], 32000 nM; in assay [4], 30 nM; in assay [7], 850 nM.
